Experimental data from US20220347167A1, “A NEW TREATMENT FOR MEIBOMIAN GLAND DYSFUNCTION” (The Schepens Eye Research Institute, Inc., priority 2019, published 2022).

Tests used:
[1] = tested on: HIF1α; test: HIF1α expression in IHMGECs by western blot; format: cell-based, human; set-up: HIF1α accumulation in IHMGECs, combination of Roxa and low O2: dose or concentration left out as unconfirmed
Protocol: Authenticated IHMGECs were grown and passaged in keratinocyte serum-free medium (KSFM) with 5 ng/mL epidermal growth factor (EGF) and 50 μg/mL bovine pituitary extract (BPE) (Thermo Fisher Scientific, Waltham, Mass.) under 21% O2 (normoxia) [Liu et al. (2010) Investigative ophthalmology & visual science 51:3993-4005; McDermott et al. (2018) Current eye research 43:1097-1101; Liu et al. (2013) Investigative ophthalmology & visual science 54:2541-2550]. Upon reaching 60% to 70% confluence, culture media were replaced by a 1:1 mixture of Dulbecco's modified Eagle's medium and Ham's F12 (DMEM/F12, Corning Life Sciences, Tewksbury, Mass.), supplemented with 10% fetal bovine serum (FBS, Atlanta Biologicals, Flowery Branch, Ga.) [Sullivan et al. (2014) Investigative ophthalmology & visual science 55:3866-3877; Liu et al. (2014) JAMA ophthalmology 132:226-228]. […] Culture plates of cells in the hypoxic condition were incubated inside hypoxia chambers filled with a premade 1% O2, 5% CO2 and 94% N2 gas mixture (Linde Gas North America, Hammond, Ind.), according to published protocols in Liu et al. (2019) The ocular surface 17(2):310-317 and Wright and Shay (2006) Nat Protoc 1:2088-2090. Following cell medium changes, the chambers were re-flushed with the gas mixture before returning to the incubator. […] Cell culture experiments (n=3 wells/treatment) were repeated at least 3 times.
[…] The cells were lysed in 2× Laemmli sample buffer (Bio-Rad Laboratories, Hercules, Calif.) and sonicated to extract nuclear protein [Andersen et al. (2002) Current biology: CB 12:1-11]. Human hepatocellular carcinoma cell lines (HepG2 cells) (America Type Culture Collection, Manassas, Va.), which express high concentration of HIF1α under CoCl2 stimulation for 4 hours [Yoo et al. (2014) Journal of cellular biochemistry 115:1147-1158], were used as a positive control for HIF1α antibody. The CoCl2 was purchased from Sigma-Aldrich Corp (St. Louis, Mo.). Cell lysates were then evaluated for HIF1α (1:1000, BD Biosciences, San Jose, Calif.) or β-actin (1:10,000, Cell Signaling Technology) expression. […]

[2] = tested on: IHMGECs; test: Cell number of IHMGECs (hemocytometer); format: cell-based, human
Protocol: After being treated with 21% O2, 1% O2, 10 μM Roxa or a combination for 10 days, cell numbers were counted with a hemocytometer and the cell lysates and cell culture supernatants were collected, as previously described in Liu et al. (2019) The ocular surface 17(2):310-317. DNase II activity in fresh samples was analyzed by SREDA in agarose gels according to published protocols in Liu et al. (2019) The ocular surface 17(2):310-317 and Oka et al. (2012) Nature 485:251-255. Cell lysates and culture media were used to measure the DNase II activity inside and outside of the cells, respectively [Liu et al. (2019) The ocular surface 17(2):310-317]. After incubation for 3-24 hours at 37° C., the area of the dark circle in the gel was measured under an UV trans-illuminator at 312 nm. For comparison between conditions, values were normalized to cell number.
Low O2 increases DNase II activity and promotes cell terminal differentiation of IHMGECs (Liu et al. Ocul Surf 2019; 17:310-317). To determine whether Roxa treatment can reproduce this hypoxic effect, IHMGECs were treated with Roxa in both normoxic and 1% O2 conditions for 10 days, prior to counting cell numbers and analyzing DNase II activity in cell lysates and supernatants.

[3] = tested on: HMGECs; test: Effect of low oxygen mimetic drugs on HMGEC function / lipid induction; format: cell-based, human
[4] = Percentage of weight gain in ApoE −/− mice; format: in vivo, mouse; details: Roxa 10 mg/kg subcutaneous, three times per week for 12 weeks, vs vehicle, p<0.05
Protocol: The whole blood samples of mice were collected by cardiac puncture after sacrificing. The blood samples were allowed to clot by leaving it undisturbed at room temperature for 15 minutes. The clot was removed by centrifuging at 1,000-2,000×g for 10 minutes in a refrigerated centrifuge. The resulting supernatant was designated serum. Then the cholesterol level in the serum was evaluated by using a commercially available cholesterol fluorometric assay kit (#10007640, Cayman Chemical, Mich.). The weight of each mice was measured before and after the experiment. The percentage of weight gain was compared between the Roxa-treated mice and the vehicle-treated mice.
At the beginning of the study, the 16 ApoE−/− mice and 4 wild-type (WT) C57BL/6J mice, 12 weeks of age, were measured for their weight, tear volume, corneal fluorescein staining and tear breakup time (TBUT). The ApoE −/− mice were randomly divide into 2 groups (n=8 mice/group) and treated with vehicle control (2% DMSO in sterile saline, subcutaneous injection) or Roxa (10 mg/kg, subcutaneous injection). The injections were administrated three times per week (on Monday, Wednesday, and Friday mornings) for 12 weeks. […] At the end of the study, the weight, tear volume, corneal fluorescein staining and tear breakup time (TBUT) were measured again. […]

[5] = tested on: MG cells; test: Staining of dissected mouse eyelids for MG cell differentiation markers; format: in vivo; details: eyelids of Roxa-treated ApoE −/− mice
Text: The mice eyelids were collected and dissected after sacrificing. The dissected samples were stained with different antibodies and dyes for lipids. For example, the dissected mice lid samples were stained with Oil Red O and LipidTox™ (Invitrogen) for evaluation of lipid accumulation. The sections were stained for pimonidazole, DNase II, HIF1α, PPARγ, Desmoglein and Desmocollin for the evaluation of cell differentiation and maturation. […] These markers include intracellular lipid accumulation, as well as expression of peroxisome proliferator-activated receptor gamma (PPAR-γ), Desmoglein and Desmocollin in MG cells.

SMILES: Cc1nc(C(=O)NCC(=O)O)c(O)c2ccc(Oc3ccccc3)cc12 [Roxa, roxadustat]
- HIF1α expression in IHMGECs, Roxa compared with low O2 alone ([1]; 21% O2, 6 hours, vs 1% O2 alone): significantly more HIF1α expression than low O2 alone
- HIF1α accumulation in IHMGECs, combination of Roxa and low O2 ([1]; 6 hours): greatest accumulation
- HIF1α expression in IHMGECs (band intensity normalized to β-actin) ([1]; Roxa (10 μM elsewhere in the source), normoxic 21% O2, 6 hours, vs control): significantly increased
- cell number of IHMGECs ([2]; Roxa alone, 21% O2, 10 days): significant decreases
- cell number of IHMGECs, combination of Roxa and 1% O2 ([2]; Roxa in 1% O2, 10 days): significant decreases
- lipid-inducing effect in HMGECs compared with other low oxygen mimetic drugs [3]: stronger lipid-inducing effect
- percentage of weight gain [4]: significantly reduced
- expression of Desmocollin in MG cells [5]: promoted expression
- expression of Desmoglein in MG cells [5]: promoted expression
- expression of peroxisome proliferator-activated receptor gamma (PPAR-γ) in MG cells [5]: promoted expression
- intracellular lipid accumulation in MG cells (differentiation marker) [5]: promoted expression
